According to ChEMBL document CHEMBL1201862, “PubChem BioAssay data set” (2004):
Calls of active or inactive are those of the source.

Columns and labels:
P388/ADR = assay: cells; type: functional; conditions: Mus musculus
P388 = assay: cells; type: functional; conditions: Mus musculus
cells [1] = type: functional, cell-based
[2] = target: T1, Trace amine-associated receptor 1 (Homo sapiens, UniProt Q96RJ0); assay: Fluorescence-based cell-based high throughput dose response assay to identify agonists of the human trace amine associated receptor 1 (TAAR1).; type: functional
T1 sequence (Q96RJ0 whole entry): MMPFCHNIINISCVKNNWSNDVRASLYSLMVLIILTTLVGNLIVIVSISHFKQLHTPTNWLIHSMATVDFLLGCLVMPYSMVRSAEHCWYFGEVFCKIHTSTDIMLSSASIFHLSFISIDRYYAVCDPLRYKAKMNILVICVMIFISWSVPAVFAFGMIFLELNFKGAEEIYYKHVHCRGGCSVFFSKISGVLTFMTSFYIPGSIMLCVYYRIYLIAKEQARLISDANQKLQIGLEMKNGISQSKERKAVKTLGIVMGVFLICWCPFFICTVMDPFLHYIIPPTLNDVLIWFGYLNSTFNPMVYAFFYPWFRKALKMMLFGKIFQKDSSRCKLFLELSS

[3] = target: T1, Trace amine-associated receptor 1; assay: Counterscreen for agonists of the human trace amine associated receptor 1 (hTAAR1): Fluorescence-based cell-based high throughput dose response assay to identify hTAAR1 agonist that also desensitize TAAR1 receptor response.; type: functional
cells [4] = type: functional, cell-based; remark: listed apart in the source
Prothrombin = Prothrombin (Homo sapiens, UniProt P00734); assay: Thrombin 1536 HTS Dose Response Confirmation. [Related pubchem assays: 1046 (Thrombin 1536 HTS; hits were confirmed in this assay)]; type: functional
SN12K1 = assay: cells; type: functional; conditions: Homo sapiens
[5] = target: T2, Heat shock factor protein 1 (Mus musculus, UniProt P38532); assay: decrease of HSF1-responsive luciferase luminescence – cell-based, NIH3T3, dose retest, confirmation (AID 2382); type: functional;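 note: NIH3T3 fibroblasts with HSF1-driven luciferase reporter stressed by proteasome inhibitor MG132; luminescence from HSF1-driven luciferase expression after 8 hours of MG132 stress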
T2 sequence (P38532 whole entry): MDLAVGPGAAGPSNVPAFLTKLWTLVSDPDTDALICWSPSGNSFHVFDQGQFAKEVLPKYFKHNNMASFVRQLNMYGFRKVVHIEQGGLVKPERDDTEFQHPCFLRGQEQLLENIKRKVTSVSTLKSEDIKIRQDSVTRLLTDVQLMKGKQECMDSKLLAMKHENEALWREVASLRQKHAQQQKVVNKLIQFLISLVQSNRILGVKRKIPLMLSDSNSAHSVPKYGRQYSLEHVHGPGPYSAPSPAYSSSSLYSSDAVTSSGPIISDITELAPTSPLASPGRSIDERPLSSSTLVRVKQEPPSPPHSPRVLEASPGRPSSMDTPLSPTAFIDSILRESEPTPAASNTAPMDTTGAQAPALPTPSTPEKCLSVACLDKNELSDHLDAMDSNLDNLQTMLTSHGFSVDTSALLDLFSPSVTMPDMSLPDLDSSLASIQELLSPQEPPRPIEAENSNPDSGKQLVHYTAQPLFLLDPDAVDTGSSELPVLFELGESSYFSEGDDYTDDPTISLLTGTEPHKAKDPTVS

[6] = target: T3, Microphthalmia-associated transcription factor (Homo sapiens, UniProt O75030); assay: reducers of TRPM1 reporter luminescence, concentration series – cell-based, SK-MEL-5, cherry-picked, set 3, MITF inhibitor project, dose response (AID 493073); type: functional;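 note: SK-MEL-5 melanoma cells with luciferase driven by the MITF target TRPM1 promoter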
T3 sequence (O75030 whole entry): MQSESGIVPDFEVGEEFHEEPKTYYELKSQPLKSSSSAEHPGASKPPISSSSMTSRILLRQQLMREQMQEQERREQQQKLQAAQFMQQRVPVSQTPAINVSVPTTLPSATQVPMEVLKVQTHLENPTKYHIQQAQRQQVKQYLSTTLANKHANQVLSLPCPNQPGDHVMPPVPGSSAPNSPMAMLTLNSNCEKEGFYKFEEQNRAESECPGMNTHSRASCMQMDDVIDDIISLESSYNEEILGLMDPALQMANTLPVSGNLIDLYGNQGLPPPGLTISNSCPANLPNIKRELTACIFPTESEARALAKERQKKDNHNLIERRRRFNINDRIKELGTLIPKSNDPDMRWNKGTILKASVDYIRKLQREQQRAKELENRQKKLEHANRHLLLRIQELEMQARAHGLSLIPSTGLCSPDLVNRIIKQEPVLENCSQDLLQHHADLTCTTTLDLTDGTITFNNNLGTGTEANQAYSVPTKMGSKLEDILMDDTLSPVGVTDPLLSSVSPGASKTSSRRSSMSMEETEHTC

[7] = Luminescence Cell-Based Dose Confirmation HTS to Identify Activators of 5'UTR Stem-Loop Driven Alpha-Synuclein mRNA Translation in H4 Neuroglioblastoma Cells. [Related pubchem assays: 1829 (Project Summary), 1814 (Primary HTS)]; type: functional
[8] = Luminescence Cell-Based Dose Response HTS to Identify Activators of Luciferase Translation or Activity in H4 […] Cells. [Related pubchem assays: 1829 (Project Summary), 1814 (Primary HTS)]; type: functional
H4 = assay: Luminescence Cell-Based Dose Response HTS to Identify Activators of 5'UTR Stem-Loop Driven Prion Protein mRNA Translation in H4 Neuroglioblastoma Cells. [Related pubchem assays: 1829 (Project Summary), 1814 (Primary HTS)]; type: functional; conditions: Homo sapiens
[9] = P. falciparum Dd2 growth inhibitors, dose response, SYBR Green, cherry-picked samples (AID 1159567); type: functional, cell-based
Leucine aminopeptidase = target: T4, Leucine aminopeptidase (Plasmodium falciparum 3D7, UniProt Q8IL11); assay: P. falciparum M17LAP inhibitors, primary screen, biochemical, fluorogenic H-Leu-NHMec substrate, 1536-well (AID 1619); type: functional
T4 sequence (Q8IL11 whole entry): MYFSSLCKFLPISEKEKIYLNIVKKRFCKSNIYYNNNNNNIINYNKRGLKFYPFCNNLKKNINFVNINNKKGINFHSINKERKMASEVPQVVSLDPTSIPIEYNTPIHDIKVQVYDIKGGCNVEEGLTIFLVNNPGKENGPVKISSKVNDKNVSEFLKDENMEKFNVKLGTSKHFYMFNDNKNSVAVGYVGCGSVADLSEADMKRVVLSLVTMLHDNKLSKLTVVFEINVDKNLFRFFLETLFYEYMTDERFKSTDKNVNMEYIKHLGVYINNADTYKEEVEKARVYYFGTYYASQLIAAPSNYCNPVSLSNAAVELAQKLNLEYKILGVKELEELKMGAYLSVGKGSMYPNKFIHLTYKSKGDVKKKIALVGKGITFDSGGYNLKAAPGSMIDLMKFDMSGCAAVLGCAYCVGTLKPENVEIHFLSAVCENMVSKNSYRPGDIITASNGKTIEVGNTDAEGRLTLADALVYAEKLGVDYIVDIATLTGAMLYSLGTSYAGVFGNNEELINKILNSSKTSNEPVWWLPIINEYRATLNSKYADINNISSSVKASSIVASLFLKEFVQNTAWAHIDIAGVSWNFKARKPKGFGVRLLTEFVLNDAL

[10] = target: Luciferin 4-monooxygenase (Photinus pyralis, UniProt P08659); assay: inhibition of purified Photinus pyralis luciferase – biochemical, luminescence, dose response (AID 1891)
[11] = Luminescence Cell-Based Dose Confirmation HTS to Identify Inhibitors of Platelet Dense Granule Release. [Related pubchem assays: 1663 (Primary HTS), 1678 (Summary of Project)]; type: functional
[12] = Trypanosoma cruzi growth suppression in host cells – NIH3T3 host cells, beta-gal luminescence, confirmation (AID 2044); type: functional, cell-based;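 note: intracellular parasites grown in NIH/3T3 mouse fibroblasts as host cells; luminescent beta-galactosidase reporter signal from transgenic T. cruzi replicating inside host cells; inhibitors lower the luminescence signal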
[13] = NIH3T3 cell viability loss – ATP luminescence, mouse fibroblasts, counter-screen, dose response (AID 2010); type: functional, cell-based;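 note: cells exposed to compound for about 90 hours before reading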
[14] = Luminescence Cell-Based Dose Retest to Confirm Inhibitors of Cancer Stem Cells. [Related pubchem assays (depositor defined):AID2717, AID2721]; type: functional; conditions: Homo sapiens

Sequence of Luciferin 4-monooxygenase (P08659 whole entry): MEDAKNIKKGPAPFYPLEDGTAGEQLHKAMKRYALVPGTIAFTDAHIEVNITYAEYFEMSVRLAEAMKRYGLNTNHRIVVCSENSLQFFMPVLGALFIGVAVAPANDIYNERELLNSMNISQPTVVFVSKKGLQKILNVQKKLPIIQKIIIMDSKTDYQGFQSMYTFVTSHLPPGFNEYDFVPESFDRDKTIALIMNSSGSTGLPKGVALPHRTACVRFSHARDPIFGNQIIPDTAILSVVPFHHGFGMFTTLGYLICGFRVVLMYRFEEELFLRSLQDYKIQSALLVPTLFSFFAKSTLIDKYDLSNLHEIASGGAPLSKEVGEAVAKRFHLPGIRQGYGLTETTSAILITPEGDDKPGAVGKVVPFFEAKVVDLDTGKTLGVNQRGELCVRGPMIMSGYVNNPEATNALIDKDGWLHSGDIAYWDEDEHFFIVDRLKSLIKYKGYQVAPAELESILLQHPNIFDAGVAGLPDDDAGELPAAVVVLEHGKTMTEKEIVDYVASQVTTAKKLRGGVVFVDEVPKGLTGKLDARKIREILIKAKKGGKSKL

## CC[C@@H](C)[C@H]([C@H](CC(=O)N1CCC[C@@H]1[C@@H](OC)[C@H](C)C(=O)N[C@H](Cc1ccccc1)c1nccs1)OC)N(C)C(=O)[C@H](NC(=O)[C@@H](C(C)C)N(C)C)C(C)C
P388/ADR
  GI50: 0.000425 µM (active)
P388
  GI50: 0.000425 µM (active)

## CCNC1=NN=C(c2cc(C)n(CCc3ccccc3)c2C)CS1
Cells [1]
  IC50: > 29.9 µM (inactive)
[2]
  EC50: 0.373 µM (active)
[3]
  IC50: 1.06 µM (active)
Cells [4]
  EC50: > 29.9 µM (inactive)

## O=C(N[C@H](C(=O)N1CCC[C@H]1C(=O)NCCc1ccccc1Cl)C1CCCCC1)c1ccccc1
Cells [1]
  IC50: > 29.9 µM (inactive)
[2]
  EC50: 5.2 µM (active)
[3]
  IC50: 5.04 µM (active)
Cells [4]
  EC50: > 29.9 µM (inactive)

## CCOc1ccccc1C(=O)Nc1nnc(SCC(=O)N2CCOCC2)s1
Prothrombin
  IC50: > 50 µM (not active)

## O=[N+]([O-])c1ccc(/C=C/c2ccc(/N=N/c3ccc(/C=C/c4ccc([N+](=O)[O-])cc4S(=O)(=O)O)c(S(=O)(=O)O)c3)cc2S(=O)(=O)O)c(S(=O)(=O)O)c1
P388/ADR
  GI50: > 100 µM (inactive)
SN12K1
  GI50: > 100 µM (inactive)
P388
  GI50: > 100 µM (inactive)

## CCCCCCCCCCCCCCCCCCOCC(COP(=O)([O-])OCC[N+](C)(C)C)OC (stereo not drawn) [EDELFOSINE]
P388/ADR
  GI50: 4.07 µM (inactive)
SN12K1
  GI50: 11.2 µM (inactive)
P388
  GI50: 2.65 µM (inactive)

## CCC(=O)NC(=S)Nc1cccc(NC(=O)c2ccccc2)c1
Prothrombin
  IC50: > 50 µM (not active)

## NCCN1C(=O)S/C(=C\c2ccc3c(c2)OCO3)C1=O
[5]
  EC50: 1.48 µM (active)
[6]
  AC50: 22.3 µM (active)

## O=C(c1ccco1)n1nc(-c2ccccc2)nc1SCc1ccccc1
[7]
  EC50: > 120 µM (not active)
[8]
  EC50: 40.1 µM (active)
H4
  EC50: 19.6 µM (active)
Prothrombin
  IC50: 0.695 µM (active)

## CC(C)(C)NC(=O)c1cc([N+](=O)[O-])ccc1N1CCCCC1
Prothrombin
  IC50: > 50 µM (not active)

## CCS(=O)(=O)N1CC(=O)N2[C@H](CO)[C@@H](c3ccc(-c4ccccc4F)cc3)[C@@H]2C1
[9]
  AC50: 13.6 µM (active)

## COC(=O)[C@@]12C[C@@H](CC(=O)NCCc3ccccc3OC)C(=O)N(Cc3ccc4c(c3)OCO4)C1=CCC(C)(C)C2
Cells [1]
  IC50: > 29.9 µM (inactive)
[2]
  EC50: 2.4 µM (active)
[3]
  IC50: 6.93 µM (active)
Cells [4]
  EC50: > 29.9 µM (inactive)

## Cc1ccc(NC(=O)CSCc2nc(O)c3nnn(Cc4ccc(F)cc4)c3n2)c(C)c1
Leucine aminopeptidase
  IC50: 2.06 µM (active)

## Cc1cnc(NC(=O)c2nn(C)cc2[N+](=O)[O-])s1
[6]
  AC50: 20.6 µM (active)

## O=NN1C(c2ccccc2)C2CCCC(C2=O)C1c1ccccc1 (stereo not drawn)
P388/ADR
  GI50: 22.5 µM (inactive)
SN12K1
  GI50: 26.5 µM (inactive)
P388
  GI50: 36.3 µM (inactive)

## Clc1ccc(-c2nc3cc[nH]cc-3n2)cc1
[10]
  EC50: 1 µM (active)
[11]
  EC50: 10 µM (active)
Cells [1]
  IC50: > 29.9 µM (inactive)
[2]
  EC50: > 29.9 µM (inactive)
[3]
  IC50: > 29.9 µM (inactive)
Cells [4]
  EC50: > 29.9 µM (inactive)

## COc1ccc(CN2C[C@@H](C)[C@@H](OC)CN(C)C(=O)c3cc(NC(=O)c4nc5ccccc5s4)ccc3OC[C@H]2C)cc1
[9]
  AC50: 6.65 µM (active)

## COc1ccc2c3c([nH]c2c1)[C@H](CO)N(Cc1ccccc1)CC31CCN(CC2CC2)CC1
[9]
  AC50: 2.62 µM (active)

## Oc1nncc(N/N=C/c2ccccc2)c1Cl
Cells [1]
  IC50: > 29.9 µM (inactive)
[2]
  EC50: 0.29 µM (active)
[3]
  IC50: 0.981 µM (active)
Cells [4]
  EC50: > 29.9 µM (inactive)

## CC1=C(C)C(=O)C(CCCCC#CCCCC#CCO)=C(C)C1=O [DOCEBENONE]
Leucine aminopeptidase
  IC50: 53.4 µM (active)

## COC1/C=C/O[C@@]2(C)Oc3c(C)c(O)c4c(O)c(cc(O)c4c3C2=O)NC(=O)/C(C)=C\C=C\[C@H](C)C(O)[C@@H](C)[C@@H](O)[C@@H](C)[C@H](OC(C)=O)[C@@H]1C (stereo partly drawn)
P388/ADR
  GI50: 10.9 µM (inactive)
SN12K1
  GI50: 15.2 µM (inactive)
P388
  GI50: 5.41 µM (inactive)

## Cc1ccc2sc(N(CCCN(C)C)C(=O)c3ccc(S(=O)(=O)N(C)C4CCCCC4)cc3)nc2c1C
[12]
  EC50: 0.148 µM (active)
[13]
  EC50: 10.3 µM (active)
[14]
  AC50: 3.72 µM (active)
[6]
  AC50: 18 µM (active)

## CCN(CC)S(=O)(=O)N1CCC(C(=O)NCC2COc3ccccc3O2)CC1 (stereo not drawn)
Leucine aminopeptidase
  IC50: 11.3 µM (active)

## CSc1nc2c(ncn2C2OC(CO)C(O)C(O)C2O)c(=O)n1C (stereo not drawn)
P388/ADR
  GI50: > 10 µM (inactive)
SN12K1
  GI50: > 100 µM (inactive)
P388
  GI50: > 100 µM (inactive)

## CCOC(=O)N[C@H](C(=O)N1CCC[C@H]1C(=O)NCCc1ccccc1Cl)C1CCCCC1
Cells [1]
  IC50: > 29.9 µM (inactive)
[2]
  EC50: 1.91 µM (active)
[3]
  IC50: 2.33 µM (active)
Cells [4]
  EC50: > 29.9 µM (inactive)
